The source made the active and inactive calls. The rule behind the calls is not given here.
Columns and labels:
THP-1 [1] = test: Antiproliferative activity against human THP-1 cells assessed as inhibition of cell growth incubated for 144 hrs by CellTiter-Glo luminescent cell viability assay; type: functional, cell-based; settings: THP-1, 144 h
SJRH30 [2] = test: Antiproliferative activity against human Rh30 cells assessed as inhibition of cell growth incubated for 144 hrs; type: functional, cell-based; settings: SJRH30, 144 h
[3] = biological target: Lysine-specific histone demethylase 1A (Homo sapiens) (UniProt O60341); test: Inhibition of LSD1 in human Rh30 cells assessed as increase in H3K4me2 level at 1 uM incubated for 48 hrs by Western blot analysis; type: cell-based
THP-1 [4] = test: Antiproliferative activity against human THP-1 cells assessed as inhibition of cell growth incubated for 72 hrs by CellTiter-Glo luminescent cell viability assay; type: functional, cell-based; settings: THP-1, 72 h
SJRH30 [5] = test: Antiproliferative activity against human Rh30 cells assessed as inhibition of cell growth incubated for 24 hrs; type: functional, cell-based; settings: SJRH30, 24 h
RD [6] = test: Antiproliferative activity against human RD cells assessed as inhibition of cell growth incubated for 144 hrs; type: functional, cell-based
[7] = Cytotoxicity against human derived mesenchymal stem cells assessed as residual cell viability at 1.25 uM measured after 72 hrs relative to control; type: toxicity, cell-based; settings: read-out: Activity
SJRH30 [8] = test: Antiproliferative activity against human Rh30 cells assessed as inhibition of cell growth incubated for 72 hrs; type: functional, cell-based; settings: SJRH30, 72 h
[9] = Cytotoxicity against HMEC cells assessed as residual cell viability at 1 uM incubated for 72 hrs by MTT assay relative to control; type: toxicity, cell-based; settings: human, read-out: Activity
RD [10] = test: Induction of apoptosis in human RD cells assessed as increase in caspase 3/7 level at 2 uM incubated for 24 hrs; type: functional, cell-based
RD [11] = test: Antiproliferative activity against human RD cells assessed as inhibition of cell growth incubated for 24 hrs; type: functional, cell-based
MDA-MB-231 = test: Antiproliferative activity against human MDA-MB-231 cells assessed as inhibition of cell growth measured after 72 hrs by MTT assay; type: functional, cell-based; settings: MDA-MB-231, 72 h
RD [12] = test: Antiproliferative activity against human RD cells assessed as reduction in live cells at 2 uM incubated for 72 hrs by calceinAM/propidium iodide staining based fluorescence microscopy; type: functional, cell-based
[13] = biological target: Lysine-specific histone demethylase 1A (Homo sapiens) (UniProt O60341); test: Inhibition of LSD1 in human RD cells assessed as increase in H3K4me2 level at 1 uM incubated for 48 hrs by Western blot analysis; type: cell-based
SJRH30 [14] = test: Antiproliferative activity against human Rh30 cells assessed as reduction in live cells at 2 uM incubated for 24 hrs by calceinAM/propidium iodide staining based fluorescence microscopy; type: functional, cell-based
[15] = biological target: T1, Histone-lysine N-methyltransferase EHMT2 (Homo sapiens, UniProt Q96KQ7); test: Inhibition of G9a (unknown origin) assessed as reduction in substrate methylation using histone H3 and SAM as substrate measured after 15 to 60 mins by microfluidic capillary electrophoresis analysis
T1 sequence (Q96KQ7 whole entry): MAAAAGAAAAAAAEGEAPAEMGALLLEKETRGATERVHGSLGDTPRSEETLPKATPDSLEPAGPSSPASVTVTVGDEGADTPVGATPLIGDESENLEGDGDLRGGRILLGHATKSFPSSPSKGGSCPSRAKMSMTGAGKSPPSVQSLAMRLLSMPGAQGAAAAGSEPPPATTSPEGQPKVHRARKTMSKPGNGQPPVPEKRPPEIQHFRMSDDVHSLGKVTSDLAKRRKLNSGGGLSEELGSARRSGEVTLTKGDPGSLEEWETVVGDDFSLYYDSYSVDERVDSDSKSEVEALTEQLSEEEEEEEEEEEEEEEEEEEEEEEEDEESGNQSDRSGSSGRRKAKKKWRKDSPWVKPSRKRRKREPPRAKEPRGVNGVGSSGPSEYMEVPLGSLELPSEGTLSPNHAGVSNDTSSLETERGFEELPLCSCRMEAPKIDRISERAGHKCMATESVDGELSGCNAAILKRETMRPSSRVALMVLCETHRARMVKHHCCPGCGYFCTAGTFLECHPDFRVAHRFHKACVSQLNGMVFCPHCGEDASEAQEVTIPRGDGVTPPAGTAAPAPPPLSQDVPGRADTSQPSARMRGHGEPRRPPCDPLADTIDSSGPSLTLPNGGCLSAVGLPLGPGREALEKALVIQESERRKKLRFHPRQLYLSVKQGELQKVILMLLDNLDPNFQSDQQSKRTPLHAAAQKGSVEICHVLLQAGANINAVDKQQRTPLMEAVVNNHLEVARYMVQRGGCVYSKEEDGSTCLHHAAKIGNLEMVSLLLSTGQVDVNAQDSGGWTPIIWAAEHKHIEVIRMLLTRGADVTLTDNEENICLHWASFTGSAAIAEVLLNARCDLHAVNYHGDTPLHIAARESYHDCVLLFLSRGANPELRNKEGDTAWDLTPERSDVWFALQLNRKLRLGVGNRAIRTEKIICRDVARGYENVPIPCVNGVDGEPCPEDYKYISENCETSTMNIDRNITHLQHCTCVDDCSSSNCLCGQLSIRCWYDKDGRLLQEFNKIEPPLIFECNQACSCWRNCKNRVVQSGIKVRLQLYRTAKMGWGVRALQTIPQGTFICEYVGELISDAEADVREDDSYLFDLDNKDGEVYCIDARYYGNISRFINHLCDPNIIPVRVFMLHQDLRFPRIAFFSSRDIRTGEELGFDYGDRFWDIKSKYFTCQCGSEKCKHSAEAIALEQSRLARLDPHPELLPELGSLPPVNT

THP-1 [16] = test: Antiproliferative activity against human THP-1 cells assessed as inhibition of cell growth incubated for 24 hrs by CellTiter-Glo luminescent cell viability assay; type: functional, cell-based; settings: THP-1, 24 h
LSD1/CoREST complex [17] = biological target: T2, LSD1/CoREST complex (Homo sapiens, UniProt O60341); test: Inhibition of human LSD1/CoREST using histone H3 peptide as substrate by fluorescence polarization assay; type: protein-complex assay
MV4-11 [18] = test: Induction of cell cycle arrest in human MV4-11 cells assessed as accumulation of cells at G1 phase at 0.2 to […] incubated for 24 hrs; type: functional, cell-based; settings: dose 0.2-2.5 µM
[19] = Cytotoxicity against human AHH-1 cells assessed as residual cell viability at 1 uM measured after 72 hrs by MTT assay relative to control; type: toxicity, cell-based; settings: read-out: Activity
MV4-11 [20] = test: Antiproliferative activity against human MV4-11 cells assessed as inhibition of cell growth at […] incubated for 72 to 144 hrs by trypan blue staining based analysis; type: functional; settings: dose 2.5 µM, time 72-144 hrs
RD [21] = test: Antiproliferative activity against human RD cells assessed as inhibition of cell growth incubated for 72 hrs; type: functional, cell-based
SJRH30 [22] = test: Induction of apoptosis in human Rh30 cells assessed as increase in caspase 3/7 level at 2 uM incubated for 24 hrs; type: functional, cell-based
[23] = biological target: Lysine-specific histone demethylase 1A (Homo sapiens) (UniProt O60341); test: Inhibition of LSD1 in human MV4-11 cells assessed as increase in H3K4me2 level at 0.2 to […] incubated for 24 hrs by Western blot analysis; type: cell-based; settings: dose 0.2-2.5 µM
LSD1/CoREST complex [24] = biological target: T2, LSD1/CoREST complex; test: Binding affinity to human LSD1/CoREST assessed as dissociation constant by competitive fluorescence polarization assay; type: protein-complex assay
MV4-11 [25] = test: Induction of apoptosis in human MV4-11 cells assessed as accumulation of cells at sub-G1 phase incubated for 24 hrs; type: functional, cell-based; settings: dose 0.2-25 µM, DDE = dose-dependent effect
[26] = biological target: Lysine-specific histone demethylase 1A (Homo sapiens) (UniProt O60341); test: Inhibition of LSD1 in human MV4-11 cells assessed as increase in CD86 expression level incubated for 24 hrs by qRT-PCR analysis; type: cell-based; settings: dose 0.2-1 µM

| IC50 (THP-1 [1]) | IC50 (THP-1 [4]) | Ki [15] | IC50 (THP-1 [16]) | Ki (LSD1/CoREST complex [17]) | Kd (LSD1/CoREST complex [24]) | Compound | other results |
| --- | --- | --- | --- | --- | --- | --- | --- |
| 92 nM | 160 nM | 2930 nM | 300 nM | 156 nM | 75 nM | COc1cc2nc(NCCCN(C)C)nc(NC3CCN(Cc4ccc5ccccc5c4)CC3)c2cc1OC | IC50 (SJRH30 [2]): 690 nM; inhibition [3]: Active; IC50 (SJRH30 [5]): 1210 nM; IC50 (RD [6]): 900 nM; viability at 72 h, 1.25 µM [7]: 96%; IC50 (SJRH30 [8]): 910 nM; viability at 72 h, 1 µM [9]: 96.5%; Activity (RD [10]): Active; IC50 (RD [11]): 2280 nM; IC50 (MDA-MB-231): 210 nM; Activity (RD [12]): Active; inhibition [13]: Active; Activity (SJRH30 [14]): Active; Activity (MV4-11 [18]): Active; viability at 72 h, 1 µM [19]: 81.5%; inhibition (MV4-11 [20]): Active; IC50 (RD [21]): 1230 nM; Activity (SJRH30 [22]): Active; inhibition [23]: Active; Activity (MV4-11 [25]): Dde |
|  |  | 5260 nM |  |  | 237 nM | COc1cc2nc(NCCN(C)C)nc(NC3CCN(Cc4ccccc4)CC3)c2cc1OC |  |
| 87 nM | 120 nM | 1180 nM | 170 nM | 146 nM | 81 nM | COc1cc2nc(NCCCN(C)C)nc(NC3CCN(Cc4ccc(-c5ccccc5)cc4)CC3)c2cc1OC | viability at 72 h, 1 µM [9]: 88.1%; IC50 (MDA-MB-231): 290 nM; Activity (MV4-11 [18]): Active; viability at 72 h, 1 µM [19]: 79.1%; inhibition (MV4-11 [20]): Active; inhibition [23]: Active; inhibition [26]: Active; Activity (MV4-11 [25]): Dde |
|  |  | 3260 nM |  | 170 nM | 68 nM | COc1cc2nc(NCCCN3CCCCC3)nc(NC3CCN(Cc4ccccc4)CC3)c2cc1OC |  |
|  |  | 32900 nM |  |  | 975 nM | COc1cc2nc(NCCCN(C)C)nc(NC3CCN(C(=O)c4ccccc4)CC3)c2cc1OC |  |
|  |  | 13300 nM |  |  | 191 nM | COc1cc2nc(NCCCN3CCN(C)CC3)nc(NC3CCN(Cc4ccccc4)CC3)c2cc1OC |  |
|  |  | 9010 nM |  |  | 162 nM | COc1cc2nc(NCCCN(C)Cc3ccccc3)nc(NC3CCN(Cc4ccccc4)CC3)c2cc1OC |  |
|  |  | 22600 nM |  |  | 369 nM | COc1cc2nc(NCCCN3CCOCC3)nc(NC3CCN(Cc4ccccc4)CC3)c2cc1OC |  |
|  |  | 8030 nM |  |  | 251 nM | COc1cc2nc(NCCCN(C)C)nc(NC3CCN(Cc4ccccc4)C3)c2cc1OC (configuration not stated) |  |
|  |  | 5820 nM |  |  | 1300 nM | COc1cc2nc(N(C)CCCN(C)C)nc(NC3CCN(Cc4ccccc4)CC3)c2cc1OC |  |
| 550 nM | 710 nM | 46900 nM | 870 nM | 205 nM | 82 nM | COc1cc2nc(NCCCN(C)C)nc(NC3CCN(C(=O)OC(C)(C)C)CC3)c2cc1OC |  |
|  |  | 4240 nM |  |  | 112 nM | COc1cc2nc(NCCCCN(C)C)nc(NC3CCN(Cc4ccccc4)CC3)c2cc1OC |  |

| Compound | IC50 (THP-1 [1]) | IC50 (THP-1 [4]) | Ki [15] | IC50 (THP-1 [16]) | Ki (LSD1/CoREST complex [17]) | Kd (LSD1/CoREST complex [24]) | other results |
| --- | --- | --- | --- | --- | --- | --- | --- |
| COc1cc2nc(NCCCN(C)C)nc(N(C)C3CCN(Cc4ccccc4)CC3)c2cc1OC | 300 nM | 430 nM | > 100000 nM | 670 nM | 569 nM | 356 nM | IC50 (MDA-MB-231): 2380 nM |

— ChEMBL document CHEMBL5120862, “Novel non-covalent LSD1 inhibitors endowed with anticancer effects in leukemia and solid tumor cellular models” (Eur J Med Chem, 2022)
